# Source: US20220395572A1, “C[…] THERAPY FOR TREATMENT OF DISC DEGENERATIVE DISEASE” (FIGENE, LLC, priority 2019, published 2022)
# Experiments:
# [1] = system: in vitro formed nucleus pulposus tissues; conditions: TNF-alpha 1-5 ng/mL, within 48 hours; cited from earlier work
# Dermal fibroblasts = test: Growth factor production by dermal fibroblasts cultured 48 hours with CBD; type: cell-based; conditions: various CBD concentrations, OPTI-MEM with 10% fetal calf serum
# From the text: (§1) In the groupings of three bars, the middle bar at each concentration represents 100,000 fibroblasts co-cultured with CBD at the indicated concentration. The right bar at each concentration represents 200,000 fibroblasts co-cultured with CBD at the indicated concentration. The left bar at each concentration represents 0 fibroblasts co-cultured with CBD at the indicated concentration;
# as §1, with “concentration.” for “concentration;”
# Dermal fibroblasts were obtained from Allcells, Inc. and cultured for 48 hours in the indicated concentrations of CBD. […] Cultures were performed in OPTI-MEM media with 10% fetal calf serum.
# [2] = system: CGRP expression in dorsal root ganglion (DRG) neurons innervating intervertebral discs; conditions: cited from earlier work
compound,measurement,setting,value
TNF-alpha,proteoglycan content of NP tissue relative to original,[1],25%
"C=C(C)C1CCC(C)=CC1c1c(O)cc(CCCCC)cc1O (centres unmarked) [CBD, 2-[3-methyl-6-(1-methylethenyl)-2-cyclohexen-1-yl]-5-pentyl-1,3-benzenediol]",IGF-1 production from fibroblasts,Dermal fibroblasts; FIG. 1,augmentation of IGF-1 was observed
same,EGF-1 production from fibroblasts,Dermal fibroblasts; FIG. 2,augmentation of EGF-1 was observed
etanercept,CGRP expression in DRG neurons innervating injured discs,"[2]; direct intradiscal application immediately after disc puncture, rats",suppressed CGRP expression
same,proportion of CGRP-immunoreactive neurons among FluoroGold-labeled neurons,"[2]; rat L4/5 disc puncture, direct intradiscal application, sham 21%±4%, puncture+saline 32%±7%",23%±4%
